The numbers were not newly measured in patent US20050205101A1, “Combined pharmocological and surgical method and system for the treatment of eye disorders” (priority 2002, published 2005), which cites them from elsewhere.

Structures can show the parent of a compound that is named as a salt.

In one data set the test system is emmetropic eye. The following applies: typical concentration of about 4%.
The test system of data set [1] is intraocular pressure (IOP). The following applies: used topically, elevated IOP; van Alphen 1976.
A further data set has as its system presbyopic patient. The conditions noted are these: presbyopia, administration to the eye; Neufeld US 5,488,050.

In the case of `CC[C@@H]1C(=O)OC[C@@H]1Cc1cncn1C` [Pilocarpine hydrochloride, pilocarpine hydrochloride], in the data set with emmetropic eye, the “adverse side effect on refraction” value is recorded as “becomes myopic”; the “near and distant vision” value is “enhanced near vision but at the sacrifice of distant vision”.

For `CC(=O)Oc1cc(C(C)C)c(OCCN(C)C)cc1C` [thymoxamine], the gain in accommodation result in the data set on accommodation in humans (treated subjects, Zetterstrom 1987) is given as “transient gain in accommodation”.

In the case of `CC(C)(C)NC[C@H](O)COc1nsnc1N1CCOCC1` [Timolol], in the data set with accommodation in humans (unfocused eyes, subjects with mean age of 23, Nyberg 1976), the tonic accommodation entry is listed as “net increase in tonic accommodation”. The “intraocular pressure (IOP)” value in data set [1] is listed as “lower the IOP”. Further, the “vision of presbyopic subject” value with presbyopic patient was “improved”.

As to `CC(C)NCC(O)COc1ccc(CCOCC2CC2)cc1` (centres unmarked) [betaxolol], the “intraocular pressure (IOP)” value in data set [1] is “lower the IOP”.

Regarding `CC(C)(C)NC[C@H](O)COc1cccc2c1CCCC2=O` [levobunolol], in data set [1], the “intraocular pressure (IOP)” value is listed as “lower the IOP”.
